Reference: patent US8192962B2, “Processes for detecting toxic substances” (Daikin Industries, Ltd., priority 2001, dated 2012)

System: Energy system protein genes
Test: DNA chip mRNA expression in yeast, energy system protein genes (Table 4)
Type: cell-based, Saccharomyces cerevisiae S288C
Procedure, shortened: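 Expression change after 2 h toxicant exposure (growth-inhibiting, sub-lethal) of log-phase S. cerevisiae S288C at 25° C. Oligo-dT-purified mRNA was labeled with Cy3-dUTP or Cy5-dUTP and hybridized >12 h at 65° C. to a genome-wide chip; ratio of scanned fluorescence to control.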

## N#Cc1c(Cl)c(Cl)c(Cl)c(C#N)c1Cl [(9), 2,4,5,6-tetrachloro-1,3-benzenedicarbonitrile]
Yeast gene YAL054C
  The level of expressed mRNA in the presence of chemical substance/The level of expressed mRNA in the absence of chemical substance: 8.9
Yeast gene YAL060W
  The level of expressed mRNA in the presence of chemical substance/The level of expressed mRNA in the absence of chemical substance: 0.6
Yeast gene YBL058W, cells incubated two hours with the chemical substance
  The level of expressed mRNA in the presence of chemical substance/The level of expressed mRNA in the absence of chemical substance: 2.6
Yeast gene YBL099W, cells incubated two hours with the chemical substance
  The level of expressed mRNA in the presence of chemical substance/The level of expressed mRNA in the absence of chemical substance: 0.9
Yeast gene YBR001C, cells incubated two hours with the chemical substance
  The level of expressed mRNA in the presence of chemical substance/The level of expressed mRNA in the absence of chemical substance: 2.3
Yeast gene YBR185C, cells incubated two hours with the chemical substance
  The level of expressed mRNA in the presence of chemical substance/The level of expressed mRNA in the absence of chemical substance: 0.9
Yeast gene YBR221C, cells incubated two hours with the chemical substance
  The level of expressed mRNA in the presence of chemical substance/The level of expressed mRNA in the absence of chemical substance: 1.0
Yeast gene YBR299W
  The level of expressed mRNA in the presence of chemical substance/The level of expressed mRNA in the absence of chemical substance: 1.1
Yeast gene YCL040W
  The level of expressed mRNA in the presence of chemical substance/The level of expressed mRNA in the absence of chemical substance: 0.9
Yeast gene YCR012W
  The level of expressed mRNA in the presence of chemical substance/The level of expressed mRNA in the absence of chemical substance: 1.4
Yeast gene YCR046C, cells incubated two hours with the chemical substance
  The level of expressed mRNA in the presence of chemical substance/The level of expressed mRNA in the absence of chemical substance: 1.9
Yeast gene YCR105W, cells incubated two hours with the chemical substance
  The level of expressed mRNA in the presence of chemical substance/The level of expressed mRNA in the absence of chemical substance: 2.0
Yeast gene YDL021W
  The level of expressed mRNA in the presence of chemical substance/The level of expressed mRNA in the absence of chemical substance: 2.5
Yeast gene YDL067C, cells incubated two hours with the chemical substance
  The level of expressed mRNA in the presence of chemical substance/The level of expressed mRNA in the absence of chemical substance: 0.9
Yeast gene YDL078C, cells incubated two hours with the chemical substance
  The level of expressed mRNA in the presence of chemical substance/The level of expressed mRNA in the absence of chemical substance: 1.1
Yeast gene YDL107W, cells incubated two hours with the chemical substance
  The level of expressed mRNA in the presence of chemical substance/The level of expressed mRNA in the absence of chemical substance: 1.2
Yeast gene YDL174C
  The level of expressed mRNA in the presence of chemical substance/The level of expressed mRNA in the absence of chemical substance: 0.5
Yeast gene YDL181W, cells incubated two hours with the chemical substance
  The level of expressed mRNA in the presence of chemical substance/The level of expressed mRNA in the absence of chemical substance: 0.7
Yeast gene YDR001C
  The level of expressed mRNA in the presence of chemical substance/The level of expressed mRNA in the absence of chemical substance: 2.2
Yeast gene YDR050C, cells incubated two hours with the chemical substance
  The level of expressed mRNA in the presence of chemical substance/The level of expressed mRNA in the absence of chemical substance: 0.4
Yeast gene YDR079W, cells incubated two hours with the chemical substance
  The level of expressed mRNA in the presence of chemical substance/The level of expressed mRNA in the absence of chemical substance: 0.9
Yeast gene YDR178W, cells incubated two hours with the chemical substance
  The level of expressed mRNA in the presence of chemical substance/The level of expressed mRNA in the absence of chemical substance: 0.9
Yeast gene YDR231C
  The level of expressed mRNA in the presence of chemical substance/The level of expressed mRNA in the absence of chemical substance: 1.5
Yeast gene YDR298C, cells incubated two hours with the chemical substance
  The level of expressed mRNA in the presence of chemical substance/The level of expressed mRNA in the absence of chemical substance: 1.0
Yeast gene YDR377W, cells incubated two hours with the chemical substance
  The level of expressed mRNA in the presence of chemical substance/The level of expressed mRNA in the absence of chemical substance: 1.0
Yeast gene YDR529C, cells incubated two hours with the chemical substance
  The level of expressed mRNA in the presence of chemical substance/The level of expressed mRNA in the absence of chemical substance: 0.5
Yeast gene YEL024W, cells incubated two hours with the chemical substance
  The level of expressed mRNA in the presence of chemical substance/The level of expressed mRNA in the absence of chemical substance: 0.7
Yeast gene YEL039C, cells incubated two hours with the chemical substance
  The level of expressed mRNA in the presence of chemical substance/The level of expressed mRNA in the absence of chemical substance: 1.2
Yeast gene YER178W
  The level of expressed mRNA in the presence of chemical substance/The level of expressed mRNA in the absence of chemical substance: 1.7
Yeast gene YFL057C
  The level of expressed mRNA in the presence of chemical substance/The level of expressed mRNA in the absence of chemical substance: 51.8
Yeast gene YFR053C
  The level of expressed mRNA in the presence of chemical substance/The level of expressed mRNA in the absence of chemical substance: 0.6
Yeast gene YGL018C, cells incubated two hours with the chemical substance
  The level of expressed mRNA in the presence of chemical substance/The level of expressed mRNA in the absence of chemical substance: 0.5
Yeast gene YGL062W
  The level of expressed mRNA in the presence of chemical substance/The level of expressed mRNA in the absence of chemical substance: 1.6
Yeast gene YGL187C, cells incubated two hours with the chemical substance
  The level of expressed mRNA in the presence of chemical substance/The level of expressed mRNA in the absence of chemical substance: 0.6
Yeast gene YGL191W, cells incubated two hours with the chemical substance
  The level of expressed mRNA in the presence of chemical substance/The level of expressed mRNA in the absence of chemical substance: 1.1
Yeast gene YGL205W, cells incubated two hours with the chemical substance
  The level of expressed mRNA in the presence of chemical substance/The level of expressed mRNA in the absence of chemical substance: 0.5
Yeast gene YGL256W, cells incubated two hours with the chemical substance
  The level of expressed mRNA in the presence of chemical substance/The level of expressed mRNA in the absence of chemical substance: 0.4
Yeast gene YGR008C
  The level of expressed mRNA in the presence of chemical substance/The level of expressed mRNA in the absence of chemical substance: 3.1
Yeast gene YGR043C
  The level of expressed mRNA in the presence of chemical substance/The level of expressed mRNA in the absence of chemical substance: 10.9
Yeast gene YGR062C, cells incubated two hours with the chemical substance, 25° C., YPD medium
  The level of expressed mRNA in the presence of chemical substance/The level of expressed mRNA in the absence of chemical substance: 1.0
Yeast gene YGR087C, cells incubated two hours with the chemical substance
  The level of expressed mRNA in the presence of chemical substance/The level of expressed mRNA in the absence of chemical substance: 0.2
Yeast gene YGR174C, cells incubated two hours with the chemical substance
  The level of expressed mRNA in the presence of chemical substance/The level of expressed mRNA in the absence of chemical substance: 1.8
Yeast gene YGR192C
  The level of expressed mRNA in the presence of chemical substance/The level of expressed mRNA in the absence of chemical substance: 0.9
Yeast gene YGR244C
  The level of expressed mRNA in the presence of chemical substance/The level of expressed mRNA in the absence of chemical substance: 1.4
Yeast gene YGR254W
  The level of expressed mRNA in the presence of chemical substance/The level of expressed mRNA in the absence of chemical substance: 0.8
Yeast gene YGR256W
  The level of expressed mRNA in the presence of chemical substance/The level of expressed mRNA in the absence of chemical substance: 3.4
Yeast gene YHL008C
  The level of expressed mRNA in the presence of chemical substance/The level of expressed mRNA in the absence of chemical substance: 1.6
Yeast gene YHR174W
  The level of expressed mRNA in the presence of chemical substance/The level of expressed mRNA in the absence of chemical substance: 1.0
Yeast gene YHR179W
  The level of expressed mRNA in the presence of chemical substance/The level of expressed mRNA in the absence of chemical substance: 3.6
Yeast gene YIL160C
  The level of expressed mRNA in the presence of chemical substance/The level of expressed mRNA in the absence of chemical substance: 3.2
Yeast gene YIR031C, cells incubated two hours with the chemical substance
  The level of expressed mRNA in the presence of chemical substance/The level of expressed mRNA in the absence of chemical substance: 2.6
Yeast gene YJL052W
  The level of expressed mRNA in the presence of chemical substance/The level of expressed mRNA in the absence of chemical substance: 1.6
